Assay results published in patent publication US20020143034A1, “Aminoalcohol derivatives and their use as beta 3 adrenergic agonists” (Fujisawa Pharmaceutical Co. Ltd., priority 1998, published 2002).

Test system: anesthetized dog
Assay: Effect on the increase in intravesical pressure induced by carbachol in anesthetized dog
Type: in vivo
Conditions: 0.32 mg/kg intra-duodenal, 30 minutes before carbachol (1.8 μg/kg); female Beagle dogs under halothane anesthesia; N = 2; Control 9.3
Experimental: Effect on the increase in intravesical pressure induced by carbachol in anesthetized dog
Female Beagle dogs weighing 8.0-15.0 kg were fasted for 24 hours and maintained under halothane anesthesia. A 12F Foley catheter was lubricated with water soluble jelly, inserted into the urethral orifice and advanced approximately 10 cm until the balloon tip was placed well inside the bladder. The balloon was then inflated with 5 ml of room air and catheter slowly withdrawn just part the first resistance that is felt at the bladder neck. Urine was completely drained out thought the catheter, and 30 ml of biological saline was infused. The catheter was connected to pressure transducer, and intravesical pressure was continuously recorded. The test compound was injected by intra-duodenal route at 30 minutes before the administration of carbachol (1.8 μg/kg).

With COc1ccc2c(Oc3ccc(C[C@@H](CO)NC[C@H](O)COc4ccccc4)cc3)ccnc2c1 [Example 78, 2(S)-2-[(2S)-2-hydroxy-3-(phenoxy)propylamino]-3-[4-(7-methoxyquinolin-4-yloxy)phenyl]propan-1-ol] as the compound, how does the “Increase in intravesical pressure” value read?
Its value is 5.5 mmHg.
